Numbers after ± are expanded uncertainties.
Conditions: Liquid, Vibrating tube method

CCCCCC(=O)OC [methyl hexanoate]
mass density [kg/m3]
Conditions	293.15 K	303.15 K	313.15 K	323.15 K	333.15 K	343.15 K	353.15 K	363.15 K
100 kPa	884.48 ± 0.91	874.56 ± 0.9	865.26 ± 0.89	855.18 ± 0.88	845.43 ± 0.87	835.2 ± 0.86	825.57 ± 0.85	815.64 ± 0.85
1000 kPa	884.65 ± 0.91	875.42 ± 0.9	865.64 ± 0.89	856.16 ± 0.88	846.26 ± 0.88	836.39 ± 0.87	826.5 ± 0.86	816.87 ± 0.85
3000 kPa	886.42 ± 0.91	877.13 ± 0.91	867.5 ± 0.9	858.01 ± 0.89	848.43 ± 0.88	838.54 ± 0.87	828.96 ± 0.86	819.47 ± 0.85
5000 kPa	887.67 ± 0.92	878.76 ± 0.91	869.26 ± 0.9	859.89 ± 0.89	850.38 ± 0.88	840.78 ± 0.88	831.13 ± 0.87	821.87 ± 0.86
10000 kPa	891.64 ± 0.93	882.75 ± 0.92	873.55 ± 0.91	864.44 ± 0.9	855.15 ± 0.9	845.7 ± 0.89	836.55 ± 0.88	827.32 ± 0.87
15000 kPa	895.33 ± 0.93	886.63 ± 0.93	877.59 ± 0.92	868.76 ± 0.91	859.63 ± 0.91	850.49 ± 0.9	841.75 ± 0.89	833.11 ± 0.89
20000 kPa	898.81 ± 0.94	890.21 ± 0.94	881.48 ± 0.93	872.98 ± 0.92	864 ± 0.92	855.28 ± 0.91	846.44 ± 0.91	837.93 ± 0.9
25000 kPa	902.28 ± 0.95	893.78 ± 0.94	885.29 ± 0.94	876.76 ± 0.93	868.18 ± 0.93	859.46 ± 0.92	851.08 ± 0.92	842.64 ± 0.91
30000 kPa	905.55 ± 0.96	897.24 ± 0.95	888.86 ± 0.95	880.55 ± 0.94	871.99 ± 0.94	863.7 ± 0.93	855.46 ± 0.93	847.27 ± 0.93
35000 kPa	908.69 ± 0.96	900.52 ± 0.96	892.33 ± 0.96	884.15 ± 0.95	875.8 ± 0.95	867.75 ± 0.95	859.68 ± 0.94	851.7 ± 0.94
40000 kPa	911.73 ± 0.97	903.67 ± 0.97	895.54 ± 0.96	887.68 ± 0.96	879.63 ± 0.96	871.46 ± 0.96	863.59 ± 0.95	856.02 ± 0.95
50000 kPa	917.83 ± 0.98	909.79 ± 0.98	901.99 ± 0.98	894.33 ± 0.98	886.48 ± 0.98	878.77 ± 0.98	871.08 ± 0.98	863.88 ± 0.98
60000 kPa	923.06 ± 1	915.57 ± 1	907.83 ± 0.99	900.65 ± 0.99	892.97 ± 0.99	885.3 ± 1	878.16 ± 1	871.24 ± 1

CCCC(=O)OC [methyl butanoate]
mass density [kg/m3]
Conditions	293.15 K	303.15 K	313.15 K	323.15 K	333.15 K	343.15 K	353.15 K	363.15 K
100 kPa	898.42 ± 0.92	886.68 ± 0.91	875.83 ± 0.9	864.35 ± 0.89	853.11 ± 0.88	841.05 ± 0.87	829.58 ± 0.86	817.31 ± 0.85
1000 kPa	898.68 ± 0.92	887.75 ± 0.91	876.3 ± 0.9	865.42 ± 0.89	854.08 ± 0.88	842.4 ± 0.9	830.8 ± 0.9	818.87 ± 0.85
3000 kPa	900.65 ± 0.93	889.67 ± 0.92	878.42 ± 0.91	867.62 ± 0.9	856.55 ± 0.89	844.95 ± 0.88	833.71 ± 0.87	821.94 ± 0.86
5000 kPa	902.15 ± 0.93	891.54 ± 0.92	880.45 ± 0.91	869.76 ± 0.9	858.82 ± 0.89	847.57 ± 0.88	836.31 ± 0.87	824.91 ± 0.86
10000 kPa	906.55 ± 0.94	895.99 ± 0.93	885.34 ± 0.92	875.02 ± 0.91	864.28 ± 0.9	853.35 ± 0.89	842.65 ± 0.89	831.48 ± 0.88
15000 kPa	910.63 ± 0.95	900.35 ± 0.94	889.92 ± 0.93	879.93 ± 0.92	869.44 ± 0.91	858.9 ± 0.9	848.71 ± 0.9	838.19 ± 0.89
20000 kPa	914.51 ± 0.95	904.45 ± 0.95	894.25 ± 0.94	884.63 ± 0.93	874.46 ± 0.93	864.31 ± 0.92	854.19 ± 0.91	843.84 ± 0.91
25000 kPa	918.33 ± 0.96	908.4 ± 1	898.53 ± 0.95	888.92 ± 0.94	879.2 ± 0.9	869.1 ± 0.9	859.51 ± 0.92	849.26 ± 0.92
30000 kPa	921.95 ± 0.97	912.18 ± 0.96	902.47 ± 0.96	893.19 ± 0.95	883.56 ± 0.95	873.89 ± 0.94	864.51 ± 0.94	854.68 ± 0.93
35000 kPa	925.38 ± 0.97	915.86 ± 0.97	906.46 ± 0.96	897.21 ± 0.96	887.79 ± 0.95	878.44 ± 0.95	869.35 ± 0.95	859.76 ± 0.94
40000 kPa	928.67 ± 0.98	919.34 ± 0.98	910.02 ± 0.97	901.15 ± 0.97	892.1 ± 0.96	882.65 ± 0.96	873.76 ± 0.96	864.61 ± 0.95
50000 kPa	935.38 ± 0.99	926.18 ± 0.99	917.24 ± 0.98	908.62 ± 0.98	899.8 ± 0.98	890.89 ± 0.98	882.24 ± 0.98	873.56 ± 0.98
60000 kPa	941.12 ± 1	932.54 ± 1	923.73 ± 1	915.65 ± 1	906.96 ± 0.99	898.16 ± 0.99	890.18 ± 1	881.85 ± 1

CCCCC(=O)OC [methyl pentanoate]
mass density [kg/m3]
Conditions	293.15 K	303.15 K	313.15 K	323.15 K	333.15 K	343.15 K	353.15 K	363.15 K
100 kPa	890.18 ± 0.92	879.57 ± 0.91	869.49 ± 0.9	858.83 ± 0.89	848.52 ± 0.88	837.8 ± 0.87	827.35 ± 0.86	816.63 ± 0.85
1000 kPa	890.39 ± 0.92	880.52 ± 0.91	869.89 ± 0.9	859.81 ± 0.89	849.45 ± 0.88	839.04 ± 0.87	828.43 ± 0.86	817.89 ± 0.85
3000 kPa	892.23 ± 0.92	882.29 ± 0.91	871.87 ± 0.9	861.81 ± 0.89	851.71 ± 0.88	841.41 ± 0.87	831.13 ± 0.86	820.7 ± 0.86
5000 kPa	893.59 ± 0.92	884.05 ± 0.91	873.76 ± 0.91	863.85 ± 0.9	853.79 ± 0.89	843.76 ± 0.88	833.48 ± 0.87	823.32 ± 0.86
10000 kPa	897.77 ± 0.93	888.3 ± 0.92	878.33 ± 0.92	868.67 ± 0.91	858.86 ± 0.9	849.05 ± 0.89	839.27 ± 0.88	829.23 ± 0.88
15000 kPa	901.59 ± 0.94	892.37 ± 0.93	882.44 ± 0.92	873.18 ± 0.92	863.66 ± 0.91	854.23 ± 0.9	844.84 ± 0.9	835.46 ± 0.89
20000 kPa	905.28 ± 0.95	896.14 ± 0.94	886.62 ± 0.93	877.67 ± 0.93	868.26 ± 0.92	859.25 ± 0.91	849.86 ± 0.91	840.59 ± 0.9
25000 kPa	908.91 ± 0.95	899.89 ± 0.95	890.61 ± 0.94	881.64 ± 0.94	872.72 ± 0.93	863.69 ± 0.93	854.79 ± 0.92	845.61 ± 0.92
30000 kPa	912.4 ± 0.96	903.55 ± 0.96	894.38 ± 0.95	885.65 ± 0.95	876.79 ± 0.94	868.17 ± 0.94	859.45 ± 0.93	850.57 ± 0.93
35000 kPa	915.63 ± 0.97	906.97 ± 0.96	898.09 ± 0.96	889.44 ± 0.96	880.79 ± 0.95	872.41 ± 0.95	863.9 ± 0.94	855.31 ± 0.94
40000 kPa	918.78 ± 0.97	910.27 ± 0.97	901.45 ± 0.97	893.13 ± 0.96	884.78 ± 0.96	876.28 ± 0.96	868 ± 0.96	859.8 ± 0.95
50000 kPa	925.12 ± 0.99	916.73 ± 0.98	908.24 ± 0.98	900.12 ± 0.98	892.02 ± 0.98	884.03 ± 0.98	875.94 ± 0.98	868.09 ± 0.98
60000 kPa	930.63 ± 1	922.74 ± 1	914.32 ± 1	906.77 ± 0.99	898.8 ± 0.99	890.84 ± 0.99	883.37 ± 1	875.9 ± 1

Source: the NIST ThermoML archive (doi:10.1016/j.fluid.2018.04.024)
